Data published in ChEMBL document CHEMBL5150057, “Making Protein Degradation Visible: Discovery of Theranostic PROTACs for Detecting and Degrading NAMPT” (J Med Chem, 2022).
Each block holds one compound with its values, some of them ahead of it. The source made the active and inactive calls. The rule behind the calls is not given here.

Key:
[1] = target: T1, Nicotinamide phosphoribosyltransferase (Homo sapiens, UniProt P43490); assay: Inhibition of NAMPT catalytic domain (unknown origin) using NAM as substrate preincubated for 5 mins followed by substrate addition
Target sequence in this assay (P43490 whole entry, the tested form may be a part): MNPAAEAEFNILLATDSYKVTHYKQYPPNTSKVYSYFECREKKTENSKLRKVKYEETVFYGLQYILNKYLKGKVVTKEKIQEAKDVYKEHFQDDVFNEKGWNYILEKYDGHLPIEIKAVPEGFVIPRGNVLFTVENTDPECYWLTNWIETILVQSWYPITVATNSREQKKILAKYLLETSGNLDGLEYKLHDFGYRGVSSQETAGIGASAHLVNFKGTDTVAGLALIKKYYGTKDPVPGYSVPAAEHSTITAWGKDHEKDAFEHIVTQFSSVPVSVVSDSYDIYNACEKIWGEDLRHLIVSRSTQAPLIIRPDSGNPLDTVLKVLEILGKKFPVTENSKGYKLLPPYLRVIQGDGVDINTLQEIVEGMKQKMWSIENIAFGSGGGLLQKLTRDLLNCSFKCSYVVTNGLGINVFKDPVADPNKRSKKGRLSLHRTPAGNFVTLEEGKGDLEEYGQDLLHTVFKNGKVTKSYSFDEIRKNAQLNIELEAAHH

A2780 [2] = assay: Cytotoxicity against human A2780 cells assessed as cell growth inhibition incubated for 72 hrs by CCK-8 assay; type: functional, cell-based; settings: A2780, 72 h
HUVEC = assay: Cytotoxicity against HUVEC assessed as cell growth inhibition incubated for 72 hrs by CCK-8 assay; type: toxicity, cell-based; settings: human
[3] = Toxicity in BALB/c nude mouse xenografted with human A2780 cells at 30 mg/kg, ip administered once daily for 14 days by caliper method; type: organism-based; settings: in vivo, 336 h, time 14 day
[4] = target: T1, Nicotinamide phosphoribosyltransferase; assay: Induction of NAMPT degradation in human A2780 cells at 30 nM after 24 hrs by Western blot analysis; type: cell-based
Target sequence in this assay (P43490 whole entry, looked up, the tested form may be a part): as the sequence (P43490 whole entry, the tested form may be a part) above

[5] = target: T1, Nicotinamide phosphoribosyltransferase; assay: Induction of NAMPT degradation in human A2780 cells after 24 hrs by Western blot analysis; type: cell-based
[6] = target: T1, Nicotinamide phosphoribosyltransferase; assay: Induction of NAMPT degradation in human A2780 cells at greater than 50 nM after 24 hrs by Western blot analysis; type: cell-based
Target sequence in this assay (P43490 whole entry, looked up, the tested form may be a part): as the sequence (P43490 whole entry, the tested form may be a part) above

[7] = target: T1, Nicotinamide phosphoribosyltransferase; assay: Induction of NAMPT degradation in human A2780 cells assessed as downregulation of NAD+ levels at 4.1 nM incubated for 24 hrs […]; type: cell-based
Target sequence in this assay (P43490 whole entry, looked up, the tested form may be a part): as the sequence (P43490 whole entry, the tested form may be a part) above

[8] = target: T1, Nicotinamide phosphoribosyltransferase; assay: Induction of NAMPT degradation in human A2780 cells at 30 nM after 1 hr; type: cell-based
Target sequence in this assay (P43490 whole entry, looked up, the tested form may be a part): as the sequence (P43490 whole entry, the tested form may be a part) above

[9] = target: T1, Nicotinamide phosphoribosyltransferase; assay: Induction of NAMPT degradation in human A2780 cells at 30 nM after 24 hrs; type: cell-based
Target sequence in this assay (P43490 whole entry, looked up, the tested form may be a part): as the sequence (P43490 whole entry, the tested form may be a part) above

[10] = target: T1, Nicotinamide phosphoribosyltransferase; assay: Induction of NAMPT degradation in human A2780 cells at 30 nM; type: cell-based; settings: time 1-24 hrs, TDE = time-dependent effect
Target sequence in this assay (P43490 whole entry, looked up, the tested form may be a part): as the sequence (P43490 whole entry, the tested form may be a part) above

[11] = target: T1, Nicotinamide phosphoribosyltransferase; assay: Induction of NAMPT degradation in human A2780 cells at 30 nM incubated for 24 hrs in presence of MG132; type: cell-based
[12] = target: T1, Nicotinamide phosphoribosyltransferase; assay: Binding affinity to NAMPT in human A2780 cells assessed as change in melting temperature at 10 uM after 2 hrs by CESTA; type: cell-based
[13] = target: von Hippel-Lindau disease tumor suppressor (Homo sapiens) (UniProt P40337); assay: Binding affinity to VHL in human A2780 cells assessed as change in melting temperature at 10 uM after 2 hrs by CESTA; type: cell-based
[14] = Photostability of compound in PBS at pH 7.4; type: physicochemical; settings: buffer
[15] = Drug uptake in human A2780 cells at 1 uM after 30 mins by immunostaining based assay; type: ADME, cell-based; settings: a2780, 0.5 h
[16] = Drug uptake in human A2780 cells at 500 nM within 1 to 6 hrs by immunostaining based assay; type: ADME, cell-based; settings: a2780, 0.5 µM, time 1-6 hrs
[17] = target: T1, Nicotinamide phosphoribosyltransferase; assay: Binding affinity to NAMPT in human A2780 cells by flow cytometry analysis; type: cell-based; settings: time 0.5-24 hrs
[18] = Half life in Sprague-Dawley rat at 30 mg/kg, ip measured upto 24 hrs by LC-MS/MS analysis; type: ADME, organism-based; settings: in vivo
[19] = Tmax in Sprague-Dawley rat at 30 mg/kg, ip measured upto 24 hrs by LC-MS/MS analysis; type: ADME, organism-based; settings: in vivo
[20] = Cmax in Sprague-Dawley rat at 30 mg/kg, ip measured upto 24 hrs by LC-MS/MS analysis; type: ADME, organism-based; set-up: dose 30 mg/kg, time < 24 hrs, route ip; settings: in vivo
[21] = AUC (0 to infinity) in Sprague-Dawley rat at 30 mg/kg, ip measured upto 24 hrs by LC-MS/MS analysis; type: ADME, organism-based; set-up: time < 24 hrs, dose 30 mg/kg, route ip; settings: in vivo
[22] = MRT (0 to infinity) in Sprague-Dawley rat at 30 mg/kg, ip measured upto 24 hrs by LC-MS/MS analysis; type: ADME, organism-based; settings: in vivo
A2780 [23] = assay: Antitumor activity against human A2780 cells xenografted in ip dosed BALB/c nude mouse administered once daily for 14 days by caliper method; type: functional, organism-based; settings: dose 10-30 mg/kg, time 14.0 day, DDE = dose-dependent effect
A2780 [24] = assay: Antitumor activity against human A2780 cells xenografted in BALB/c nude mouse assessed as tumor growth inhibition at 10 mg/kg, ip administered once daily for 14 days by caliper method; type: functional; settings: A2780, 336 h, time 14 day, read-out: TGI
A2780 [25] = assay: Antitumor activity against human A2780 cells xenografted in BALB/c nude mouse assessed as tumor growth inhibition at 30 mg/kg, ip administered once daily for 14 days by caliper method; type: functional; settings: A2780, 336 h, time 14 day, read-out: TGI
[26] = Toxicity in BALB/c nude mouse xenografted with human A2780 cells at 10 to 30 mg/kg, ip administered once daily for 14 days by caliper method; type: organism-based; settings: in vivo, 336 h, dose 10-30 mg/kg, time 14 day
Mus musculus = assay: In vivo induction of NAMPT degradation in human A2780 cells xenografted in BALB/c mouse at 10 to 30 mg/kg, ip administered once daily for 14 days by immunofluorescence analysis; type: functional, organism-based; settings: dose 10-30 mg/kg, time 14.0 day
A2780 [27] = assay: Cytotoxicity against human A2780 cells assessed as cell growth inhibition incubated for 72 hrs in presence of (2S,4R)-1-(2-amino-3,3-dimethyl-butanoyl)-4-hydroxy-N-[(1S)-1-[4-(4-methylthiazol-5-yl)phenyl]ethyl]pyrrolidine-2-carboxamide by CCK-8 assay; type: functional, cell-based; settings: A2780, 72 h
[28] = target: T1, Nicotinamide phosphoribosyltransferase; assay: Induction of NAMPT degradation in human A2780 cells at 50 nM after 24 hrs by Western blot analysis; type: cell-based
[29] = Drug uptake in human A2780 cells at 500 nM within 1 to 6 hrs by confocal imaging analysis; type: ADME, cell-based; settings: a2780, 0.5 µM, time 1-6 hrs
[30] = Drug uptake in human A2780 cells at 500 nM after 6 hrs by confocal imaging analysis; type: ADME, cell-based; settings: a2780, 6 h, 0.5 µM
[31] = target: T1, Nicotinamide phosphoribosyltransferase; assay: Induction of NAMPT degradation in human A2780 cells at 100 nM after 24 hrs by Western blot analysis; type: cell-based

von Hippel-Lindau disease tumor suppressor (Homo sapiens), sequence (P40337 whole entry, looked up): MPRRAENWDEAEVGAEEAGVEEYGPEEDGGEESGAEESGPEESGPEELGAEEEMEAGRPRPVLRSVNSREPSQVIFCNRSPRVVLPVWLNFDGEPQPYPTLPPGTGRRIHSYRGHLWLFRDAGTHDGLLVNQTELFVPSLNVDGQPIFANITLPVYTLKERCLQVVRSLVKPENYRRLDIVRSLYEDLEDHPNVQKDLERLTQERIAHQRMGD

Activity [4]: Active | IC50 [1]: 41.9 nM | DC50 [5]: 8.4 nM | Activity ([5]; DDE = dose-dependent effect): Dde | Activity [6]: Active | Activity [7]: Active | Activity [8]: Active | Activity [9]: Active | Activity [10]: Tde | Activity [11]: Active | ΔTm [12]: 5.11 °C | ΔTm [13]: > 2.62 °C | Stability [14]: Stable | Drug uptake [15]: Active | Drug uptake [16]: Active | Activity [17]: Active | half-life [18]: 9.81 h | Tmax [19]: 4 h | Cmax [20]: 175 ng/mL | AUC(0-inf) [21]: 1110 ng·h/mL | MRT inf [22]: 12.7 h
SMILES: CCCn1c(=O)c(-c2ccc(C(=O)NCc3cccnc3)cc2)nc2ccc(NC(=O)CCCCCCCCCCC(=O)N[C@H](C(=O)N3C[C@H](O)C[C@H]3C(=O)N[C@@H](C)c3ccc(-c4scnc4C)cc3)C(C)(C)C)cc21
IC50 (A2780 [2]): 12.1 nM | Activity (HUVEC): Non-Toxic | Activity (A2780 [23]): Dde | inhibition in vivo at 10 mg/kg (A2780 [24]): 53% | inhibition in vivo at 30 mg/kg (A2780 [25]): 73% | Activity [26]: Non-Toxic | Activity (Mus musculus): Active | IC50 (A2780 [27]): 100 nM

Activity [4]: Active | Activity [28]: Active
SMILES: CCCn1c(=O)c(-c2ccc(C(=O)NCc3cccnc3)cc2)nc2ccc(NC(=O)CCCCCCCCC(=O)N[C@H](C(=O)N3C[C@H](O)C[C@H]3C(=O)N[C@@H](C)c3ccc(-c4scnc4C)cc3)C(C)(C)C)cc21
IC50 (A2780 [2]): 14 nM

Drug uptake [29]: Active | Drug uptake [30]: Active
SMILES: CCCn1c(=O)c(-c2ccc(C(=O)NCc3cccnc3)cc2)nc2ccc(NC(=O)CCCCCCCCCCC(=O)N[C@H](C(=O)N3C[C@@H](O)C[C@@H]3C(=O)N[C@@H](C)c3ccc(-c4scnc4C)cc3)C(C)(C)C)cc21
IC50 (A2780 [2]): 143 nM

Second part, the compound before the results:

SMILES: CCCn1c(=O)c(-c2ccc(C(=O)NCc3cccnc3)cc2)nc2ccccc21
IC50 [1]: 57.8 nM | IC50 (A2780 [2]): 99 nM | Activity (HUVEC): Non-Toxic | Activity [3]: Toxic

SMILES: CCCn1c(=O)c(-c2ccc(C(=O)NCc3cccnc3)cc2)nc2ccc(NC(=O)CCCCC(=O)N[C@H](C(=O)N3C[C@H](O)C[C@H]3C(=O)N[C@@H](C)c3ccc(-c4scnc4C)cc3)C(C)(C)C)cc21
IC50 (A2780 [2]): 88 nM

SMILES: CCCn1c(=O)c(-c2ccc(C(=O)NCc3cccnc3)cc2)nc2ccc(NC(=O)CCCCCCC(=O)N[C@H](C(=O)N3C[C@H](O)C[C@H]3C(=O)N[C@@H](C)c3ccc(-c4scnc4C)cc3)C(C)(C)C)cc21
Activity [4]: Active | Activity [31]: Active | IC50 (A2780 [2]): 20.8 nM
